Measurements taken from PMC8111447 (Frontiers in Pharmacology, 2021).

Legend:
[1] = biological target: T1, Tec(h) activated (Homo sapiens, UniProt P42680); assay: Kinase panel (Eurofins); format: biochemical; settings: n = 2; for inhibition at 1 µM: at 1 μmol/L; for IC50: read-out: IC50 kinase inhibition
T1 construct: purchased Eurofins
T1 sequence (P42680 1-631): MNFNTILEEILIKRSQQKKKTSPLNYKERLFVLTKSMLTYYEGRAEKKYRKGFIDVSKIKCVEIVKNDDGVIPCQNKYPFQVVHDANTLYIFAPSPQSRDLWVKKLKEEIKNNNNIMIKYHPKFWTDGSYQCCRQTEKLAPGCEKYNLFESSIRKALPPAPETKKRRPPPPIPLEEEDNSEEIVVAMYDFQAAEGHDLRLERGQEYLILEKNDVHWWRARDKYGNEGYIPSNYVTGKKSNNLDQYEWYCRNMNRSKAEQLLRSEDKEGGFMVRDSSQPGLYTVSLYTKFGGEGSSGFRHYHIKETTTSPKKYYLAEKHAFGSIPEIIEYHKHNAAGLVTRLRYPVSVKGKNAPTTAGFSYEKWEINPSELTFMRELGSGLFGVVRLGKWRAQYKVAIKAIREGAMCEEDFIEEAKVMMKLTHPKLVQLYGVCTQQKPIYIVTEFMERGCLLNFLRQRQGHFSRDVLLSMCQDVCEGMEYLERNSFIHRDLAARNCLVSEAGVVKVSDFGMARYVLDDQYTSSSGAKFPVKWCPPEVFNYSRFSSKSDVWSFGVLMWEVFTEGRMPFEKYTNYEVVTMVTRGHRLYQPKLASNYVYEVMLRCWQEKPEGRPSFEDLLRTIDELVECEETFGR
Excerpt: (§1) These receptors have a methionine gatekeeper in their kinase domains, and are related to hyperglycemia in other clinical trials of EGFR TKI, such as Co-1686.

[2] = biological target: T2, ACK1(h) (Homo sapiens, UniProt Q07912); assay: Kinase panel (Eurofins); format: biochemical; settings: n = 2; for inhibition at 1 µM: at 1 μmol/L; for IC50: read-out: IC50 kinase inhibition
T2 construct: purchased Eurofins
T2 sequence (Q07912 whole entry): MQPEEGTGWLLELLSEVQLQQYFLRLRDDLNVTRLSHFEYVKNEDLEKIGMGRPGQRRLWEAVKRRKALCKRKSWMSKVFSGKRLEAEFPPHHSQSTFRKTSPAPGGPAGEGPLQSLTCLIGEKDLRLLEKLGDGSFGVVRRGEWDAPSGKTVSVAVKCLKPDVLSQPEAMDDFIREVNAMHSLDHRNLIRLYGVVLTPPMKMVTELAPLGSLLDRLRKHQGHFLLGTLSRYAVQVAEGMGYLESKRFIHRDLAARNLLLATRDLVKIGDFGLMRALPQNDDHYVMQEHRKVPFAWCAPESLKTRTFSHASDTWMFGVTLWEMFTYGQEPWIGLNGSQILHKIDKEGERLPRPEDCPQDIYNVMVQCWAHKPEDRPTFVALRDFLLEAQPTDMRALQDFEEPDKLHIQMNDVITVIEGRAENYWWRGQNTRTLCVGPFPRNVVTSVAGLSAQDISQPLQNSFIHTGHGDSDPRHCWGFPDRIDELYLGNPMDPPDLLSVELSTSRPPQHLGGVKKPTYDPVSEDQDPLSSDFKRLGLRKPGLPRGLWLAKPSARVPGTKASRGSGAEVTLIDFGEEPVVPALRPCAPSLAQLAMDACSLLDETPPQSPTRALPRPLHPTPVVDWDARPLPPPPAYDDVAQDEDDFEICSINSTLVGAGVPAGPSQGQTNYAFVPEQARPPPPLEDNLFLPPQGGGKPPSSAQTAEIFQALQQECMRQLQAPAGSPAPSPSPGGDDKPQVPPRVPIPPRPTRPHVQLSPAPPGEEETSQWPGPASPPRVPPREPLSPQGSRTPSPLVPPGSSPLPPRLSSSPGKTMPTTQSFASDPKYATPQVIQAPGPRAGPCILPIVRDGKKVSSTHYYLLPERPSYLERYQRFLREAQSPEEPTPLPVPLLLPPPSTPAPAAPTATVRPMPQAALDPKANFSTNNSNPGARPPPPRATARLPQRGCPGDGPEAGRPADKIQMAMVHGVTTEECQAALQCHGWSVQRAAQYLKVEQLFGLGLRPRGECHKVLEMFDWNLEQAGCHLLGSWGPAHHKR
Excerpt: as §1

[3] = biological target: T3, BRK(h) (Homo sapiens, UniProt Q13882); assay: Kinase panel (Eurofins); format: biochemical; settings: n = 2; for inhibition at 1 µM: at 1 μmol/L; for IC50: read-out: IC50 kinase inhibition
T3 construct: purchased Eurofins
T3 sequence (Q13882 whole entry): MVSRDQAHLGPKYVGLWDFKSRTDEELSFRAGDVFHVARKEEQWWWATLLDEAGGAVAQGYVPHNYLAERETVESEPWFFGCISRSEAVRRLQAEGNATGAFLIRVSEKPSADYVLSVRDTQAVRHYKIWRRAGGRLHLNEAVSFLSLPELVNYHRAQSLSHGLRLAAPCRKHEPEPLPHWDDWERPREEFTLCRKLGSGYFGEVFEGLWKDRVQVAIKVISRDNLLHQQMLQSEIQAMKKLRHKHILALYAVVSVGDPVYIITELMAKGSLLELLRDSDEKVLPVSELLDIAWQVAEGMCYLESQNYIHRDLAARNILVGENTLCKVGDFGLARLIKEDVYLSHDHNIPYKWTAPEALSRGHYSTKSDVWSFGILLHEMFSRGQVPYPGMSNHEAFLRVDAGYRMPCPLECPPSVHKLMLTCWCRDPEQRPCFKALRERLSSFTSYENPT
Excerpt: as §1

[4] = tested on: PC-9 (EGFR^d746–750); assay: Cell proliferation assay (CTG, 72 h); format: cell-based, human; settings: for IC50: Homo sapiens, PC-9 cells, 72 h, mean ± SD, n = 3
Procedure: (§2) Human lung cancer cell lines (NCI-H1975, H3255 and A431) were obtained from the American Type Culture Collection (ATCC), while PC-9 cell line was supplied by the European Collection of Authenticated Cell Cultures (ECACC). For in vivo implantation, NCI-H1975, H3255 and PC-9 cells were cultured in RPMI1640 (Invitrogen) supplemented with 10% v/v fetal calf serum (Sigma-Aldrich) and 2 mmol/L L-glutamine (Invitrogen). A431 cells were cultured in DMEM (Invitrogen) supplemented with 10% v/v fetal calf serum and 2 mmol/L v/v L-glutamine. All cell lines were then cultured in a humidified incubator with 5% CO2 at 37°C.
(§3) Test compounds were dissolved in DMSO as a 10 mmol/L stock solution. The initial concentration of compounds were 10 μmol/L and the 3-fold dilution was nine times. […] Plate was shaked for 2 min and the mixture was incubated at room temperature for 10 min.
(§4) The half-maximal inhibition concentration (IC50) values were processed by GraphPad Prism7 (GraphPad Software; La Jolla, CA).

[5] = tested on: H3255 (EGFR^L858R); assay: Cell proliferation assay (CTG, 72 h); format: cell-based, human; settings: for IC50: Homo sapiens, NCI-H3255, H3255 cells, 72 h, mean ± SD, n = 3
Procedure: as §2, §3, §4

[6] = tested on: EGFR phosphorylation (pY1068) in NCI-H1975 cells; assay: Phosphorylation of EGFR assay, time course; format: cell-based, human; settings: 0.1 μmol/L, 1-10 h
Procedure: Cells (NCI-H1975/PC-9/[…]) were seeded into a 384-well plate (10,000 cells/well), grown for 24 h, and then treated with different test compounds (0.1 μmol/L) for 1, 2, 4, 6, 8 and 10 h. A431 cells were stimulated with 100 ng/ml EGF after incubation for 10 min. Cells were washed with ice-cold HBSS before extraction with 25 μl cell lysis buffer. Phosphorylation of EGFR was measured using a sandwich ELISA assay with phospho-specific EGFR (pY1068) antibodies [AlphaLISA SureFire p-EGF Receptor (Tyr1068) Assay Kit, PerkinElmer].

[7] = biological target: EGFR^WT (Homo sapiens, UniProt P00533); assay: EGFR kinase inhibition assay (HTRF); format: biochemical; settings: 30 μmol/L ATP, no pre-incubation, n = 3
Procedure: (§5) The sequence of the substrate is proprietary to CisBio. […] Kinase activity assays were performed in a total reaction volume of 3 μl per well. […] The substrate mixture (1.5 μl) consisted of 1 μmol/L TK substrate, 30 μmol/L ATP, 1 mmol/L DTT, and 10 mmol/L MgCl2. […] The plates were incubated for 1 h before being read on Pherastar using standard HTRF settings. […] There was no pre-incubation of the test compounds with the enzyme/substrate mixture prior to ATP addition. For IC50 calculation, data were analyzed using XLFit version 5.3.

[8] = biological target: EGFR^L861Q (Homo sapiens, UniProt P00533, L861Q); assay: EGFR kinase inhibition assay (HTRF); format: biochemical; settings: 30 μmol/L ATP, no pre-incubation, n = 3
Sequence of EGFR^L861Q (P00533 25-1210 L861Q): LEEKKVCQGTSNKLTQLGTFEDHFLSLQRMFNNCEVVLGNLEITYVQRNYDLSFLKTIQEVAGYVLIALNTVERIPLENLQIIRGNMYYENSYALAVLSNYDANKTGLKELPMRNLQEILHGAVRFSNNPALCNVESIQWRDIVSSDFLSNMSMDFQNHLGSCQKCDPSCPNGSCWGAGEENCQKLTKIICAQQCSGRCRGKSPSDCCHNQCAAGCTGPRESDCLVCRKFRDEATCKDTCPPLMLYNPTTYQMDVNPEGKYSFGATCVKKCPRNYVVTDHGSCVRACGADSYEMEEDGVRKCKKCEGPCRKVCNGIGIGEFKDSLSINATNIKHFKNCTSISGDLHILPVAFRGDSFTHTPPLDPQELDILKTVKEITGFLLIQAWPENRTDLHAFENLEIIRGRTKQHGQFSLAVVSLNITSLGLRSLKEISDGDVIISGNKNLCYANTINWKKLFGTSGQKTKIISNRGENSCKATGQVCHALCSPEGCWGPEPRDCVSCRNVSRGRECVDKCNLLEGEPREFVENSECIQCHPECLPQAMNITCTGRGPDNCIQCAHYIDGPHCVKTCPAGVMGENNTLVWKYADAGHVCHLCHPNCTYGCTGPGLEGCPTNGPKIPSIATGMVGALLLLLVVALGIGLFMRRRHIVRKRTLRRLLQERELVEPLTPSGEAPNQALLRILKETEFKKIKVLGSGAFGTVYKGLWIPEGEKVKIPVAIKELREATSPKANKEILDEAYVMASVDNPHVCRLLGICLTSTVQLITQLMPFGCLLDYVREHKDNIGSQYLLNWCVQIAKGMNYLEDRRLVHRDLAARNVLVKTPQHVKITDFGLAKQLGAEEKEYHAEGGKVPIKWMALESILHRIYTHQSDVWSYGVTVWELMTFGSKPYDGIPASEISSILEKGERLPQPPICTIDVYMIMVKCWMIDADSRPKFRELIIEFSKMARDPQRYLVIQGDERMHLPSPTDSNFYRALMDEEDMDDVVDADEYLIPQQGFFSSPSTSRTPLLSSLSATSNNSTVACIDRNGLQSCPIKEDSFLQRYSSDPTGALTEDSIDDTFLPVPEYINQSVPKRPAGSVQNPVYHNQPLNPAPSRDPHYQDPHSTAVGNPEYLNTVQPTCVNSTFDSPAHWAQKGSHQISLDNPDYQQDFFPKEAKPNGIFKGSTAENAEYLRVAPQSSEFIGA
Procedure: as §5

[9] = biological target: EGFR^d746–750/T790M (Homo sapiens, UniProt P00533, DEL746-750/T790M); assay: EGFR kinase inhibition assay (HTRF); format: biochemical; settings: 30 μmol/L ATP, no pre-incubation, n = 3
Sequence of EGFR^d746–750/T790M (P00533 with tags, fused parts or gaps DEL746-750/T790M): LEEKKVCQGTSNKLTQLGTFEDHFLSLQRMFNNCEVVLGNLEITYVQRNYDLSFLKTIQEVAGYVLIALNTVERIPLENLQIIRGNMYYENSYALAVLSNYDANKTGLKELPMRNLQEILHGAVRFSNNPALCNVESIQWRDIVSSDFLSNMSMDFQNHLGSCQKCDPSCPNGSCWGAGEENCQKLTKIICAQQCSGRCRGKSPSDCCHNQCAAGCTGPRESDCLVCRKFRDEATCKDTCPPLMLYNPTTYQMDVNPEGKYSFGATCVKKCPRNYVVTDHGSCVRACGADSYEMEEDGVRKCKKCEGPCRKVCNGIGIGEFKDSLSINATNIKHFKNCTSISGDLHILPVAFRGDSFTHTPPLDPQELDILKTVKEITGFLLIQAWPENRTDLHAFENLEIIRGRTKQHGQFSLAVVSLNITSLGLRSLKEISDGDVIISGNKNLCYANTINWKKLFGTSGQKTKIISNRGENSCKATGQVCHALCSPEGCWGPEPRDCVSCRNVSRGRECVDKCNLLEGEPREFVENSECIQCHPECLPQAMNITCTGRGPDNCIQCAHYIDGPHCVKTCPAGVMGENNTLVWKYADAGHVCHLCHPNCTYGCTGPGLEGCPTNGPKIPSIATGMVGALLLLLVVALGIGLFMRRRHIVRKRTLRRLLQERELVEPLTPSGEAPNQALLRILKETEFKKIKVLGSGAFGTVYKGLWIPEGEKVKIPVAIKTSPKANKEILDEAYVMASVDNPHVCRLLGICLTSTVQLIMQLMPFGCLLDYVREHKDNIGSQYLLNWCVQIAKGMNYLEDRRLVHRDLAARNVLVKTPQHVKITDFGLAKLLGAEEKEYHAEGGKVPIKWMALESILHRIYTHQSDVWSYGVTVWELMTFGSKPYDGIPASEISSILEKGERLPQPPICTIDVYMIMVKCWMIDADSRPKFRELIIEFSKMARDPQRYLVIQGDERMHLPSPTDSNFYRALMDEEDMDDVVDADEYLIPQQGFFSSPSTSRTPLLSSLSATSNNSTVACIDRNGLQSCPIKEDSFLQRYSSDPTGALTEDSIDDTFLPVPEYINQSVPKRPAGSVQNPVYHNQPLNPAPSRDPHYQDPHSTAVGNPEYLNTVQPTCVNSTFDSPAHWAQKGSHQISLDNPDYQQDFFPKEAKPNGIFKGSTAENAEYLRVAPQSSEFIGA
Procedure: as §5

[10] = biological target: EGFR^d746–750 (Homo sapiens, UniProt P00533, DEL746-750); assay: EGFR kinase inhibition assay (HTRF); format: biochemical; settings: 30 μmol/L ATP, no pre-incubation, n = 3
Sequence of EGFR^d746–750 (P00533 with tags, fused parts or gaps DEL746-750): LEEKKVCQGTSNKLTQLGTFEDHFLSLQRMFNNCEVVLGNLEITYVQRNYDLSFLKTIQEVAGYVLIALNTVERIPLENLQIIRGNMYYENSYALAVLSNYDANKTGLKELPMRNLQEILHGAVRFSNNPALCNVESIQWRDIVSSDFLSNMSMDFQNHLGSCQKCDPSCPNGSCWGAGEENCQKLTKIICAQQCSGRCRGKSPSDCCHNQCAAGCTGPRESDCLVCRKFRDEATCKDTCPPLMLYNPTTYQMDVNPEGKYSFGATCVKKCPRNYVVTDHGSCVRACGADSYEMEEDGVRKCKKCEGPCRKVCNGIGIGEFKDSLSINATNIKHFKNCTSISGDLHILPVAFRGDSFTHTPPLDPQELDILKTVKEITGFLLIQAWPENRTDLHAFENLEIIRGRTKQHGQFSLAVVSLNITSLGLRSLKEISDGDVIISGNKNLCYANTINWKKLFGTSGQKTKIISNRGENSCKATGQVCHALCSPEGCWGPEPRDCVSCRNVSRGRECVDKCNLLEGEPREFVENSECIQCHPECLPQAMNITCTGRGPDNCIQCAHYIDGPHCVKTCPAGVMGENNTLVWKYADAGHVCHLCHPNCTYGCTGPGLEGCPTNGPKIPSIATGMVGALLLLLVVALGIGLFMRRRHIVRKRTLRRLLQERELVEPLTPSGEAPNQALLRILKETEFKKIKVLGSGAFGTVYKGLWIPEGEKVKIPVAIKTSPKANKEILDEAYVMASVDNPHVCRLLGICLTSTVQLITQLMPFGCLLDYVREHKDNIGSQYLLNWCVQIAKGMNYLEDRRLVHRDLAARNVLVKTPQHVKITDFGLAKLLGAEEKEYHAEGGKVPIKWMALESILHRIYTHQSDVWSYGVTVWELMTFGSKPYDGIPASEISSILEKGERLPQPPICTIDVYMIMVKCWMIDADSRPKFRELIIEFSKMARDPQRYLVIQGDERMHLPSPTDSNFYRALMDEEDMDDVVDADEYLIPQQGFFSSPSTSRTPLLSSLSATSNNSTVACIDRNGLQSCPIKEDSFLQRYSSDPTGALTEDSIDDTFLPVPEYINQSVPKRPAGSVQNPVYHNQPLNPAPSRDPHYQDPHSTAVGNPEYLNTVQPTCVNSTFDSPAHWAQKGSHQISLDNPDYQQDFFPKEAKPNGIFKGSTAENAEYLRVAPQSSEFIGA
Procedure: as §5

[11] = biological target: T4, EGFR^L858R/T790M (Homo sapiens, UniProt P00533, L858R/T790M); assay: EGFR kinase inhibition assay (HTRF); format: biochemical; settings: 30 μmol/L ATP, no pre-incubation, n = 3
T4 construct: with amino acids 696-end containing the mutations T790M and L858R; GST (N); purchased Millipore
Procedure: as §5

[12] = biological target: EGFR^L858R (Homo sapiens, UniProt P00533, L858R); assay: EGFR kinase inhibition assay (HTRF); format: biochemical; settings: 30 μmol/L ATP, no pre-incubation, n = 3
Procedure: as §5

[13] = tested on: NCI-H1975 (EGFR^L858R/T790M); assay: Cell proliferation assay (CTG, 72 h); format: cell-based; settings: Homo sapiens, NCI-H1975 cells, mean ± SD, n = 3
Procedure: as §2, §3, §4

[14] = tested on: A431 (EGFR^WT); assay: Cell proliferation assay (CTG, 72 h); format: cell-based; settings: Homo sapiens, A-431, A431 cells, mean ± SD, n = 3
Procedure: as §2, §3, §4

| inhibition at 1 µM [1] [%] | IC50 [1] [nM] | inhibition at 1 µM [2] [%] | IC50 [2] [nM] | inhibition at 1 µM [3] [%] | IC50 [3] [nM] | IC50 [4] [nM] | IC50 [5] [nM] | IC50 [7] [nM] | IC50 [8] [nM] | IC50 [9] [nM] | IC50 [10] [nM] | IC50 [11] [nM] | IC50 [12] [nM] | IC50 [13] [nM] | IC50 [14] [nM] | SMILES | inhibitory effect on EGFR phosphorylation [6] | fold more sensitive than the inhibition of wild-type EGFR in A431 cells ([4]; PC-9 vs A431, proliferation IC50) [fold] | fold more sensitive than the inhibition of wild-type EGFR in A431 cells ([5]; H3255 vs A431, proliferation IC50) [fold] |
| --- | --- | --- | --- | --- | --- | --- | --- | --- | --- | --- | --- | --- | --- | --- | --- | --- | --- | --- | --- |
| 77 | 272 | 90 | 124 | 91 | 80 | 15 ± 0.65 | 17.1 ± 0.55 | 144 | 32 | 1.1 | 1.7 | 1 | 6 | 6.56 ± 1.43 | 704 ± 92.5 | C=CC(=O)Nc1cc(Nc2nccc(-c3c4n(c5ccccc35)CCCC4)n2)c(OC)cc1N(C)CCNC [Imp3] | stronger inhibitory effects on EGFR phosphorylation compared to osimertinib |  |  |
| 80 | 150 | 81 | 86 | 85 | 62 | 7.63 ± 0.18 | 9.39 ± 0.88 | 18 | 4 | 0.89 | 1.4 | 0.1 | 0.7 | 3.93 ± 1.12 | 779 ± 135 | C=CC(=O)Nc1cc(Nc2nccc(-c3c4n(c5ccccc35)CCCC4)n2)c(OC)cc1N(C)CCN(C)C [SH-1028] | stronger inhibitory effects on EGFR phosphorylation compared to osimertinib | ~102 | ~83 |
